Columns and labels:
Experiment in all cases: relative viability (nuclei count vs DMSO), 5 days (fraction); higher = more cells survive
Midostaurin + Trametinib = compound: CO[C@@H]1[C@H](N(C)C(=O)c2ccccc2)C[C@H]2O[C@]1(C)n1c3ccccc3c3c4c(c5c6ccccc6n2c5c31)C(=O)NC4 [Midostaurin] + CC(=O)Nc1cccc(-n2c(=O)n(C3CC3)c(=O)c3c(Nc4ccc(I)cc4F)n(C)c(=O)c(C)c32)c1 [Trametinib] (partner 0.02 µM)
Outline: (§1)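 Cells from lung cancer lines were seeded into 1536-well plates and, one day later, dosed by pin tool. Treatments were either a single drug or a fixed dose of an anchor drug with five library-drug doses (not always all listed) in √10 steps. After 5 days, nuclei were stained in a one-step fixation (final 0.05% Triton X-100, 1% formaldehyde, 1 ug/ml Hoechst) and counted on 4× images, and relative viability is the treated-to-vehicle nuclei ratio, as the median of duplicate plates.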

[1] = compound: COc1cc(-c2nn([C@H]3CC[C@H](N4CCN(C(C)=O)CC4)CC3)c3ncnc(N)c23)ccc1NC(=O)c1cc2ccccc2n1C + CC1(C)CCC(c2ccc(Cl)cc2)=C(CN2CCN(c3ccc(C(=O)NS(=O)(=O)c4ccc(N[C@H](CCN5CCOCC5)CSc5ccccc5)c(S(=O)(=O)C(F)(F)F)c4)cc3)CC2)C1 [Navitoclax] (partner 0.5 µM)
Outline: as §1

[2] = compound: COc1cc(-c2nn([C@H]3CC[C@H](N4CCN(C(C)=O)CC4)CC3)c3ncnc(N)c23)ccc1NC(=O)c1cc2ccccc2n1C
Outline: (§2)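 Vehicle-anchored 1536-well plates of lung cancer cell lines, held overnight at 37 °C, were pinned with five library-drug doses (not always all listed) spaced by √10. No medium change followed over the next 5 days, after which the cells were fixed, permeabilised and Hoechst-stained together and imaged at 4×. Nuclei were counted with MetaXpress, and viability is treated-well nuclei over vehicle-well nuclei, taken as a median across plates. Plates passed with control CV below 25% and at least one doubling.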

Midostaurin = compound: CO[C@@H]1[C@H](N(C)C(=O)c2ccccc2)C[C@H]2O[C@]1(C)n1c3ccccc3c3c4c(c5c6ccccc6n2c5c31)C(=O)NC4 [Midostaurin]
Outline: as §2

[3] = compound: COc1cc(-c2nn([C@H]3CC[C@H](N4CCN(C(C)=O)CC4)CC3)c3ncnc(N)c23)ccc1NC(=O)c1cc2ccccc2n1C + NC(=O)Nc1cc(-c2cccc(F)c2)sc1C(=O)N[C@H]1CCCNC1 [AZD7762] (partner 0.2 µM)
Outline: as §1

Cell Line	relative viability (Midostaurin + Trametinib; first compound 0.01 µM)	relative viability (Midostaurin + Trametinib; first compound 0.03162 µM)	relative viability (Midostaurin + Trametinib; first compound 0.1 µM)	relative viability (Midostaurin + Trametinib; first compound 0.3162 µM)	relative viability ([1]; first compound 0.0128 µM)	relative viability ([1]; first compound 0.04048 µM)	relative viability ([1]; first compound 0.128 µM)	relative viability ([1]; first compound 1.28 µM)	relative viability ([2]; 0.0128 µM)	relative viability ([2]; 0.04048 µM)	relative viability ([2]; 0.128 µM)	relative viability ([2]; 1.28 µM)	relative viability (Midostaurin; 0.01 µM)	relative viability (Midostaurin; 0.03162 µM)	relative viability (Midostaurin; 0.1 µM)	relative viability (Midostaurin; 0.3162 µM)	relative viability ([3]; first compound 0.0128 µM)	relative viability ([3]; first compound 0.04048 µM)	relative viability ([3]; first compound 0.128 µM)	relative viability ([3]; first compound 1.28 µM)
NCI-H2009	0.263	0.262	0.292	0.319	1.16	1.16	1.2	1.14	1.01	0.861	0.927	0.973	0.972	0.904	0.961	0.939	–	–	–	–
COR-L23	0.599	0.555	0.573	0.497	0.972	1.29	0.9	0.982	1.06	1.1	0.92	1.08	0.998	0.946	0.958	0.875	–	–	–	–
NCI-H1299	–	–	–	–	1.06	1.15	1.08	1.13	1.06	1.11	1	1	1.01	0.974	0.975	0.965	–	–	–	–
LCLC-103H	0.723	0.686	0.717	0.681	–	–	–	–	1.06	1.01	1	1.07	1.05	0.922	0.979	1	0.828	0.787	0.759	0.703
ABC-1	–	–	–	–	–	–	–	–	0.879	0.885	0.756	0.805	0.867	0.962	0.948	0.96	0.658	0.759	0.697	0.728
NCI-H650	1.03	1.07	1	0.945	–	–	–	–	1.13	1.25	0.911	1.01	0.779	0.844	0.922	0.858	1.13	1.02	0.975	0.935
NCI-H1650	0.64	0.587	0.594	0.694	1.34	1.5	1.44	1.1	0.922	1.1	0.941	0.812	0.915	0.957	0.921	0.937	–	–	–	–
COR-L 105	0.483	0.445	0.433	0.477	0.728	0.813	0.78	0.456	0.811	1.09	0.863	0.596	0.953	0.858	0.828	0.874	–	–	–	–
NCI-H2228	0.522	0.634	0.792	0.723	0.825	1.17	0.91	0.745	1.22	1	1.12	0.744	1.02	0.969	1.22	1.18	–	–	–	–
SW 900	0.759	0.919	0.743	0.962	–	–	–	–	1.03	0.986	0.788	1	0.821	0.777	0.964	0.745	0.547	0.564	0.612	0.402
NCI-H661	0.597	0.617	0.61	0.534	–	–	–	–	1.02	1.07	1	0.779	0.963	0.869	0.991	1.11	–	–	–	–
NCI-H1563	–	–	–	–	–	–	–	–	1.04	1.12	0.971	0.709	1.09	1.03	0.957	0.769	–	–	–	–
A549	–	–	–	–	1.22	1.22	1.17	1.15	0.995	0.952	0.979	0.957	0.994	0.857	0.953	0.744	–	–	–	–
NCI-H2342	0.895	0.735	0.89	0.778	–	–	–	–	0.807	1.03	1	0.932	0.913	0.903	1.04	0.989	0.464	0.422	0.477	0.361
NCI-H1623	–	–	–	–	–	–	–	–	1.01	1.05	0.946	0.739	0.982	0.956	1.05	1.23	–	–	–	–
NCI-H522	0.719	0.825	0.752	0.839	–	–	–	–	0.936	0.875	0.954	0.885	1.07	1.06	0.947	1.04	0.73	0.848	0.909	0.892
IA-LM	–	–	–	–	0.87	1.08	0.87	0.968	1.04	0.999	1.05	0.991	0.93	0.677	0.918	0.941	–	–	–	–
NCI-H358	0.146	0.158	0.133	0.14	–	–	–	–	0.889	0.703	0.702	0.335	0.949	0.93	1.08	0.85	0.496	0.5	0.444	0.225
EBC-1	–	–	–	–	0.422	0.501	0.422	0.339	1.06	1.07	1.01	1.02	1.01	0.9	0.959	0.684	–	–	–	–

Reference: the supplement of paper PMC10307832
